Several values for one entry are separate records, joined by “and”; a condition that tells them apart may be missing. Identical values can stand only once. Like-named read-outs stand apart in the source and are kept apart here.
Tests used:
HK NblS (CA domain) = test: Differential scanning fluorimetry (DSF), NblS; type: binding, Synechococcus sp. PCC 7942
Method: (§1) To monitor protein unfolding, the fluorescent dye Sypro orange was used[26]. Differential scanning fluorimetry (DSF) experiments were conducted in the iCycleriQ Real Time Detection System (Bio-Rad, Hercules, CA). Solutions of 20 μl of 0.1 mg/ml protein (final concentration), 200 μM fragment cocktails or individual fragments (final concentration), 10X sypro orange (final concentration) and buffer (100 mM TrisCl pH 8, 150 mM NaCl) were added to the wells of the 96-well iCycler iQ PCR plate. The plate was heated from 20 to 85 or 99 °C at a heating rate of 1 °C/min. The fluorescent intensity was measured with Ex/Em: 490/530 nm. Prism GraphPad v.5 was used for curve fitting and statistical analysis.

S. pneumoniae WalK = target: T1, S. pneumoniae WalK (Streptococcus pneumoniae, UniProt Q8DPL8); test: In vitro autophosphorylation kinase assay with γ-32P-ATP, WalK; type: biochemical
T1 construct: WalK (amino acids from 208 to 449); N-terminal His6-3C site of vector pOPINF (own knowledge of the vector); made in house; host or cells: E. coli RIL
T1 sequence (Q8DPL8 208-449): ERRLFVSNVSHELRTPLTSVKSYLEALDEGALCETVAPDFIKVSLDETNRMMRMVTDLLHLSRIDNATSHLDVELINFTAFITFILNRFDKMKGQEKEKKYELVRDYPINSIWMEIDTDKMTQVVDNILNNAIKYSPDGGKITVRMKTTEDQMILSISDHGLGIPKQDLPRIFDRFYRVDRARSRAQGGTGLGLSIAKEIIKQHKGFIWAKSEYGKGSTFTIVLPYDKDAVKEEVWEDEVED
How it was run: (§2)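 Autophosphorylation, initiated with γ-32P-ATP (0.1 μCi/μl; 0.03–0.06 μM ATP final), quenched with SDS/EDTA sample buffer, resolved by SDS-PAGE and quantified by phosphor-imaging. ≈4 μM kinase, fragments up to 20 mM, pH 8.5 Tris buffer with Mg2+; DMSO-matched ligand-free controls.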

E. coli EnvZ = target: T2, E. coli EnvZ (Escherichia coli, UniProt P0AEJ4); test: Aggregation analysis by native-PAGE, EnvZ; details: 2 mM, 10% DMSO
T2 construct: The catalytic portion (DHp and CA domain) of E. coli PhoR (PhoR^E), E. coli EnvZ; made in house; host or cells: E. coli RIL
T2 sequence (P0AEJ4 240-440): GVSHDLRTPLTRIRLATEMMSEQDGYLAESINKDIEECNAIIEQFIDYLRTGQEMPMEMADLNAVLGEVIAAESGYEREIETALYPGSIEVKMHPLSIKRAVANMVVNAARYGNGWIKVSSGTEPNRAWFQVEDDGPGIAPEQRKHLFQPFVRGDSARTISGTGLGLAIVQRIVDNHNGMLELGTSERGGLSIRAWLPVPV
Method: E. coli PhoR and EnvZ, and S. aureus PhoR ([…], final concentration) were prepared in kinase buffer. […] DMSO in the assays was maintained to a final concentration 10% (v/v). After 30 min of incubation at room temperature Native polyacrylamide gel electrophoresis (Native-PAGE) loading buffer was added and samples loaded. Coomassie blue staining was used for protein visualization.

E. coli PhoR (PhoR^E) = target: T3, E. coli PhoR (PhoR^E) (Escherichia coli, UniProt P08400); test: In vitro autophosphorylation kinase assay with γ-32P-ATP, PhoR^E; type: biochemical; details: for IC50: autophosphorylation, one time point (30 sec), 10% DMSO; for inhibition at 2000 µM: 2 mM, 30 sec, compared to negative control
T3 construct: The catalytic portion (DHp and CA domain) of E. coli PhoR (PhoR^E); made in house; host or cells: E. coli RIL
T3 sequence (P08400 210-425): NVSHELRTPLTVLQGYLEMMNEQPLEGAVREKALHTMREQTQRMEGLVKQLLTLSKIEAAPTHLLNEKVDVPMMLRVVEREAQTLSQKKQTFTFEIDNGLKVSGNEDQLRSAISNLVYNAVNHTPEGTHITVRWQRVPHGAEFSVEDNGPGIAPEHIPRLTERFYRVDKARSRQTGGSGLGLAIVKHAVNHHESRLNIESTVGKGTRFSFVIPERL
How it was run: as §2

[1] = target: T4, HK WalK (DHp and CA domain) (Streptococcus pneumoniae, UniProt Q8DPL8); test: Differential scanning fluorimetry (DSF), WalK; type: binding
T4 construct: WalK (amino acids from 208 to 449); N-terminal His6-3C site of vector pOPINF (own knowledge of the vector); made in house; host or cells: E. coli RIL
T4 sequence (Q8DPL8 208-449): as the sequence (Q8DPL8 208-449) above
Method: as §1

Gram positive strains = test: Antibacterial susceptibility testing, Gram positive strains (summary); type: cell-based
Method: (§3) Bacterial strains used in this study for antibacterial susceptibility testing (Table S5) were propagated using standard microbiological procedures. Minimal inhibitory concentrations (MICs) were determined following a standard double-dilution method. MICs were recorded as the lowest concentration of the compound where no visible growth was observed. After plating the dilutions around the MIC or growing them in fresh MH media, minimal bactericidal concentration (MBC) was recorded as the lowest concentration of the compound at which no colonies were formed or no growth was observed, respectively. For S. pneumoniae MICs were determined by adapting the standard double-dilution method to anaerobic conditions and of this microorganism (use of Todd Hewitt Yeast extract with 200 U/mL of catalase and continuous monitoring of growth).

NCI-60 tumor cell lines = tested on: NCI-60 tumor cell lines; set-up: method as in PMID 11121759; details: 2.72 μg/ml (10 μM), one dose; maximum over cell lines; cited from earlier work
Gram negative strains = test: Antibacterial susceptibility testing, Gram negative strains (summary); type: cell-based; details: read-out: MIC Gram negative
Method: as §3

**Q.** With `Nc1nc(-c2ccc(Br)cc2)cs1` [F1, 4-(4-bromophenyl)-1,3-thiazol-2-amine] as the compound, how does the “increase of NblS Tm” value (HK NblS (CA domain)) read?
**A.** Its value is 2.1 °C.

**Q.** And the IC50 (S. pneumoniae WalK; autophosphorylation, one time point (30 sec), 10% DMSO, read-out: IC50 WalK)?
**A.** Its IC50 is > 2000 µM.

**Q.** What about the “inhibitory capacity for WalK autophosphorylation activity” value (S. pneumoniae WalK; single concentration 5 mM, 30 sec) of the same compound?
**A.** Its value is “weak inhibitory capacity”.

**Q.** What about the “HK aggregation, EnvZ” value (E. coli EnvZ) of the same compound?
**A.** The value was “do not cause HK aggregation”.

**Q.** What about the IC50 (E. coli PhoR (PhoR^E); read-out: IC50 PhoR^E) of the same compound?
**A.** Its IC50 is ~2000 µM and 2000 µM.

**Q.** And the “increase of WalK Tm” value [1]?
**A.** Its value is 4.5 °C.

**Q.** With `CC[C@H](c1ccc(O)cc1)[C@@H](CC)c1ccc(F)cc1` [S1.13, 4-[(3S,4R)-4-(4-fluorophenyl)hexan-3-yl]phenol] as the compound, how does the MBC (Gram positive strains; Staphylococcus aureus, MRSA, summary, read-out: MBCs against Gram-positives, including multi-drug resistant MRSA) read?
**A.** The MBC was ≤ 16 µg/mL.

**Q.** What about the MIC (Gram positive strains; summary over Gram positive strains) of the same compound?
**A.** The MIC was ≥ 8 µg/mL.

**Q.** And the “growth inhibition of NCI-60 cell lines” value (NCI-60 tumor cell lines)?
**A.** The value was ≤ 19%.

**Q.** And the MIC (Gram negative strains)?
**A.** The MIC was > 500 µg/mL.

**Q.** And the inhibition at 2000 µM (E. coli PhoR (PhoR^E))?
**A.** Its inhibition at 2000 µM is > 75%.

**Q.** And the IC50 (E. coli PhoR (PhoR^E); read-out: IC50 PhoR^E)?
**A.** Its IC50 is 16 µM.

**Q.** With `CC(C)(C)c1ccc(O)c(CNc2ccccc2)c1` [S1.14, 4-tert-butyl-2-[(phenylamino)methyl]phenol] as the compound, how does the inhibition at 2000 µM (E. coli PhoR (PhoR^E)) read?
**A.** The inhibition at 2000 µM was > 40%.

**Q.** And the IC50 (E. coli PhoR (PhoR^E); read-out: IC50 PhoR^E)?
**A.** The IC50 was > 2000 µM.

**Q.** Which inhibition at 2000 µM (E. coli PhoR (PhoR^E)) does the source give for `CC(=O)Nc1cccc(-c2ccccc2Cl)c1` [S1.7, N-[3-(2-chlorophenyl)phenyl]acetamide] here?
**A.** The inhibition at 2000 µM was > 40%.

**Q.** What about the IC50 (E. coli PhoR (PhoR^E); IC50 PhoR^E) of the same compound?
**A.** Its IC50 is 100 µM and ~100 µM.
